Measured values: patent publication US9809858B2, “O-glycan pathway ovarian cancer signature” (H. LEE MOFFITT CANCER CENTER AND RESEARCH INSTITUTE, INC., priority 2012, dated 2017)

Columns and labels:
A2008 OVCA cell line = experiment: CellTiter-Blue cell viability assay, A2008; format: cell-based; conditions: Homo sapiens; A2008 cells, 72 hours, growth/viability
Source text: (§1) OVCA cell lines were obtained from the American Type Culture Collection (Manassas, Va.; CAOV3, OV90, OVCAR3, SKOV3), from the European Collection of Cell Cultures (Salisbury, UK; A2780CP, A2780S), from Kyoto University (Kyoto, Japan; CHI, CHIcisR, M41, M41CSR, Tyknu, and TyknuCisR), or as kind gifts (A2008, C13, CAOV2, HeyA8, IGR-OV1, IMCC3, IMCC5, MCAS, OV2008, OVCA420, OVCA429, OVCA432, OVCA433, FUOV1, PEO1, PEO4, SK-OV-6, T8, TOV-112D, TOV-21-G, Dov13, BG1, Ovary1847, OVCAR10, OVCAR8, OVCAR5, OVCAR4, OVCAR2, SK-OV-4). Cell lines were maintained in RPMI 1640 medium (Invitrogen, Carlsbad, Calif.) supplemented with 10% fetal bovine serum (Fisher Scientific, Pittsburgh, Pa.), 1% sodium pyruvate, 1% penicillin/streptomycin (Cellgro, Manassas, Va.), and 1% nonessential amino acids (HyClone, Hudson, N.H.). Mycoplasma testing was performed every 6 months, in accordance with the manufacturer's protocol (Lonza, Rockland, Me.).
(§2) Drug activity was evaluated using a high-throughput CellTiter-Blue® cell viability assay. […] Fluorescence was read at 579-nm excitation/584-nm emission using a Synergy™ 4 microplate reader (Bio-Tek Instruments, Inc., Winooski, Vt.). IC50 values were determined using a sigmoidal equilibrium model fit (XLfit 5.2, ID Business Solutions Ltd.). […]

A2780CP OVCA cell line = experiment: CellTiter-Blue cell viability assay, A2780CP; format: cell-based; conditions: Homo sapiens, A2780C/P; A2780CP cells, 72 hours, growth/viability
Source text: as §1, §2

A2780S OVCA cell line = experiment: CellTiter-Blue cell viability assay, A2780S; format: cell-based; conditions: Homo sapiens; A2780S cells, 72 hours, growth/viability
Source text: as §1, §2

BG1 OVCA cell line = experiment: CellTiter-Blue cell viability assay, BG1; format: cell-based; conditions: Homo sapiens, BG-1; BG1 cells, 72 hours, growth/viability
Source text: as §1, §2

C13 OVCA cell line = experiment: CellTiter-Blue cell viability assay, C13; format: cell-based; conditions: Homo sapiens; C13 cells, 72 hours, growth/viability
Source text: as §1, §2

CAOV2 OVCA cell line = experiment: CellTiter-Blue cell viability assay, CAOV2; format: cell-based; conditions: Homo sapiens; CAOV2 cells, 72 hours, growth/viability
Source text: as §1, §2

CAOV3 OVCA cell line = experiment: CellTiter-Blue cell viability assay, CAOV3; format: cell-based; conditions: Homo sapiens, Caov-3; CAOV3 cells, 72 hours, growth/viability
Source text: as §1, §2

CHI OVCA cell line = experiment: CellTiter-Blue cell viability assay, CHI; format: cell-based; conditions: Homo sapiens; CHI cells, 72 hours, growth/viability
Source text: as §1, §2

CHIcisR OVCA cell line = experiment: CellTiter-Blue cell viability assay, CHIcisR; format: cell-based; conditions: Homo sapiens; CHIcisR cells, 72 hours, growth/viability
Source text: as §1, §2

Dov13 OVCA cell line = experiment: CellTiter-Blue cell viability assay, Dov13; format: cell-based; conditions: Homo sapiens; Dov13 cells, 72 hours, growth/viability
Source text: as §1, §2

FUOV1 OVCA cell line = experiment: CellTiter-Blue cell viability assay, FUOV1; format: cell-based; conditions: Homo sapiens; FUOV1 cells, 72 hours, growth/viability
Source text: as §1, §2

HeyA8 OVCA cell line = experiment: CellTiter-Blue cell viability assay, HeyA8; format: cell-based; conditions: Homo sapiens, HEY A8; HeyA8 cells, 72 hours, growth/viability
Source text: as §1, §2

IGR-OV1 OVCA cell line = experiment: CellTiter-Blue cell viability assay, IGR-OV1; format: cell-based; conditions: Homo sapiens, IGROV-1; IGR-OV1 cells, 72 hours, growth/viability
Source text: as §1, §2

IMCC3 OVCA cell line = experiment: CellTiter-Blue cell viability assay, IMCC3; format: cell-based; conditions: Homo sapiens; IMCC3 cells, 72 hours, growth/viability
Source text: as §1, §2

IMCC5 OVCA cell line = experiment: CellTiter-Blue cell viability assay, IMCC5; format: cell-based; conditions: Homo sapiens; IMCC5 cells, 72 hours, growth/viability
Source text: as §1, §2

M41 OVCA cell line = experiment: CellTiter-Blue cell viability assay, M41; format: cell-based; conditions: Homo sapiens; M41 cells, 72 hours, growth/viability
Source text: as §1, §2

M41CSR OVCA cell line = experiment: CellTiter-Blue cell viability assay, M41CSR; format: cell-based; conditions: Homo sapiens; M41CSR cells, 72 hours, growth/viability
Source text: as §1, §2

MCAS OVCA cell line = experiment: CellTiter-Blue cell viability assay, MCAS; format: cell-based; conditions: Homo sapiens; MCAS cells, 72 hours, growth/viability
Source text: as §1, §2

OV2008 OVCA cell line = experiment: CellTiter-Blue cell viability assay, OV2008; format: cell-based; conditions: Homo sapiens; OV2008 cells, 72 hours, growth/viability
Source text: as §1, §2

OV90 OVCA cell line = experiment: CellTiter-Blue cell viability assay, OV90; format: cell-based; conditions: Homo sapiens, OV-90; OV90 cells, 72 hours, growth/viability
Source text: as §1, §2

Ovary1847 OVCA cell line = experiment: CellTiter-Blue cell viability assay, Ovary1847; format: cell-based; conditions: Homo sapiens; Ovary1847 cells, 72 hours, growth/viability
Source text: as §1, §2

OVCA420 OVCA cell line = experiment: CellTiter-Blue cell viability assay, OVCA420; format: cell-based; conditions: Homo sapiens, OVCA 420; OVCA420 cells, 72 hours, growth/viability
Source text: as §1, §2

OVCA429 OVCA cell line = experiment: CellTiter-Blue cell viability assay, OVCA429; format: cell-based; conditions: Homo sapiens; OVCA429 cells, 72 hours, growth/viability
Source text: as §1, §2

OVCA432 OVCA cell line = experiment: CellTiter-Blue cell viability assay, OVCA432; format: cell-based; conditions: Homo sapiens; OVCA432 cells, 72 hours, growth/viability
Source text: as §1, §2

OVCA433 OVCA cell line = experiment: CellTiter-Blue cell viability assay, OVCA433; format: cell-based; conditions: Homo sapiens; OVCA433 cells, 72 hours, growth/viability
Source text: as §1, §2

OVCAR10 OVCA cell line = experiment: CellTiter-Blue cell viability assay, OVCAR10; format: cell-based; conditions: Homo sapiens; OVCAR10 cells, 72 hours, growth/viability
Source text: as §1, §2

OVCAR2 OVCA cell line = experiment: CellTiter-Blue cell viability assay, OVCAR2; format: cell-based; conditions: Homo sapiens; OVCAR2 cells, 72 hours, growth/viability
Source text: as §1, §2

OVCAR3 OVCA cell line = experiment: CellTiter-Blue cell viability assay, OVCAR3; format: cell-based; conditions: Homo sapiens, OVCAR-3; OVCAR3 cells, 72 hours, growth/viability
Source text: as §1, §2

OVCAR4 OVCA cell line = experiment: CellTiter-Blue cell viability assay, OVCAR4; format: cell-based; conditions: Homo sapiens, OVCAR-4; OVCAR4 cells, 72 hours, growth/viability
Source text: as §1, §2

OVCAR5 OVCA cell line = experiment: CellTiter-Blue cell viability assay, OVCAR5; format: cell-based; conditions: Homo sapiens, OVCAR-5; OVCAR5 cells, 72 hours, growth/viability
Source text: as §1, §2

OVCAR8 OVCA cell line = experiment: CellTiter-Blue cell viability assay, OVCAR8; format: cell-based; conditions: Homo sapiens, OVCAR-8; OVCAR8 cells, 72 hours, growth/viability
Source text: as §1, §2

PEO1 OVCA cell line = experiment: CellTiter-Blue cell viability assay, PEO1; format: cell-based; conditions: Homo sapiens; PEO1 cells, 72 hours, growth/viability
Source text: as §1, §2

PEO4 OVCA cell line = experiment: CellTiter-Blue cell viability assay, PEO4; format: cell-based; conditions: Homo sapiens; PEO4 cells, 72 hours, growth/viability
Source text: as §1, §2

SK-OV-3 OVCA cell line = experiment: CellTiter-Blue cell viability assay, SK-OV-3; format: cell-based; conditions: Homo sapiens; SK-OV-3 cells, 72 hours, growth/viability
Source text: as §1, §2

SK-OV-4 OVCA cell line = experiment: CellTiter-Blue cell viability assay, SK-OV-4; format: cell-based; conditions: Homo sapiens; SK-OV-4 cells, 72 hours, growth/viability
Source text: as §1, §2

SK-OV-6 OVCA cell line = experiment: CellTiter-Blue cell viability assay, SK-OV-6; format: cell-based; conditions: Homo sapiens; SK-OV-6 cells, 72 hours, growth/viability
Source text: as §1, §2

T8 OVCA cell line = experiment: CellTiter-Blue cell viability assay, T8; format: cell-based; conditions: Homo sapiens; T8 cells, 72 hours, growth/viability
Source text: as §1, §2

TOV-112D OVCA cell line = experiment: CellTiter-Blue cell viability assay, TOV-112D; format: cell-based; conditions: Homo sapiens, TOV112D; TOV-112D cells, 72 hours, growth/viability
Source text: as §1, §2

TOV-21G OVCA cell line = experiment: CellTiter-Blue cell viability assay, TOV-21G; format: cell-based; conditions: Homo sapiens, TOV21G; TOV-21G cells, 72 hours, growth/viability
Source text: as §1, §2

Tyknu OVCA cell line = experiment: CellTiter-Blue cell viability assay, Tyknu; format: cell-based; conditions: Homo sapiens; Tyknu cells, 72 hours, growth/viability
Source text: as §1, §2

TyknuCisR OVCA cell line = experiment: CellTiter-Blue cell viability assay, TyknuCisR; format: cell-based; conditions: Homo sapiens; TyknuCisR cells, 72 hours, growth/viability
Source text: as §1, §2

[1] = tested on: patients with recurrent OVCA; conditions: 800-1250 mg/m^2/week, Phase II and III studies; cited from earlier work

Nc1ccn([C@@H]2O[C@H](CO)[C@@H](O)C2(F)F)c(=O)n1 [Gemcitabine, 2′,2′-difluorodeoxycytidine]
IC50 (A2008 OVCA cell line): 164 nM | IC50 (A2780CP OVCA cell line): 366 nM | IC50 (A2780S OVCA cell line): 51.8 nM | IC50 (BG1 OVCA cell line): 30.4 µM | IC50 (C13 OVCA cell line): 418 nM | IC50 (CAOV2 OVCA cell line): 3.9 µM | IC50 (CAOV3 OVCA cell line): 2.2 nM | IC50 (CHI OVCA cell line): 269 nM | IC50 (CHIcisR OVCA cell line): 23.7 nM | IC50 (Dov13 OVCA cell line): 6 nM | IC50 (FUOV1 OVCA cell line): 59.4 µM | IC50 (HeyA8 OVCA cell line): 1500 nM | IC50 (IGR-OV1 OVCA cell line): 531 nM | IC50 (IMCC3 OVCA cell line): 943 nM | IC50 (IMCC5 OVCA cell line): 105 nM | IC50 (M41 OVCA cell line): 39.5 nM | IC50 (M41CSR OVCA cell line): 37.4 nM | IC50 (MCAS OVCA cell line): 56.4 µM | IC50 (OV2008 OVCA cell line): 384 nM | IC50 (OV90 OVCA cell line): 18.9 nM | IC50 (Ovary1847 OVCA cell line): 865 nM | IC50 (OVCA420 OVCA cell line): 12.7 µM | IC50 (OVCA429 OVCA cell line): 22.2 nM | IC50 (OVCA432 OVCA cell line): 14.9 µM | IC50 (OVCA433 OVCA cell line): 9.9 nM | IC50 (OVCAR10 OVCA cell line): 672 nM | IC50 (OVCAR2 OVCA cell line): 22 nM | IC50 (OVCAR3 OVCA cell line): 6.2 µM | IC50 (OVCAR4 OVCA cell line): 655 nM | IC50 (OVCAR5 OVCA cell line): 278 nM | IC50 (OVCAR8 OVCA cell line): 273 nM | IC50 (PEO1 OVCA cell line): 135 nM | IC50 (PEO4 OVCA cell line): 536 nM | IC50 (SK-OV-3 OVCA cell line): 16.1 µM | IC50 (SK-OV-4 OVCA cell line): 3.3 nM | IC50 (SK-OV-6 OVCA cell line): 3.5 µM | IC50 (T8 OVCA cell line): 256 nM | IC50 (TOV-112D OVCA cell line): 44.5 µM | IC50 (TOV-21G OVCA cell line): 764 nM | IC50 (Tyknu OVCA cell line): 4.6 nM | IC50 (TyknuCisR OVCA cell line): 8.5 nM | response rates [1]: up to 19%
